Where “and” joins values, the source holds several entries; their conditions need not be identical. Equal entries are not always repeated. Entries after “also recorded” stand apart in the source; their conditions may differ. Where two headings read alike, the source gives them in different places. Square brackets hold non-standard residues; d marks the D form. Ends that are not written are not given here. Peptide text beside a SMILES is read from it.

The text below walks through data of patent US10584157B2 (priority 2015, dated 2020).

One test deals with cell-surface B7-2. The test is classed as binding, human.
Chain of cell-surface B7-2 (P01552 28-266 limits assumed): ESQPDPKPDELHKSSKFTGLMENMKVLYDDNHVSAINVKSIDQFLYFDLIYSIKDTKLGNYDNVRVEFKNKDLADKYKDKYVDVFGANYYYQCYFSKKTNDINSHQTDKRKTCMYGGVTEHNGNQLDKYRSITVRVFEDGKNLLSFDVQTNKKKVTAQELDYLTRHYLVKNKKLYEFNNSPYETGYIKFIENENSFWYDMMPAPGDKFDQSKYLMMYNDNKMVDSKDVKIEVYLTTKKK
The subject of test [1] is cell-surface CD28. The test is classed as binding.
The target of test [2] is cell-surface CD28 (Staphylococcus aureus, UniProt P01552). Conditions: cited from earlier work.
Chain of cell-surface CD28 (Staphylococcus aureus, UniProt P01552) (P01552 28-266 limits assumed): as above
Test [3] concerns SEB lethality in D-galactosamine-sensitized mice. The test is classed as in vivo, BALB/c mice.
For another test, the system named is PBMC induced with αCD3. The test is classed as cell-based, human.
Test [4] concerns PBMC induced with E. coli LPS. The test is classed as cell-based, human.
A further test has as its system PBMC induced with SEB. The test is classed as cell-based, human.
In test [5] the test system is PBMC induced with αCD3/αCD28. The test is classed as cell-based, human.
For another test, the target named is SEB (Staphylococcus aureus, UniProt P01552). The test can be described thus: biochemical. The test is classed as binding, S. aureus. The settings on record: for kon: read-out: Ka (1/Ms), association rate; for koff: read-out: Kd (1/s), dissociation rate.
Chain of SEB (P01552 28-266 limits assumed): as above
The target of a further test is TSST-1 (Staphylococcus aureus, UniProt P06886). The test can be described thus: biochemical. The test is classed as binding, S. aureus. The settings on record: for kon: read-out: Ka (1/Ms), association rate; for koff: read-out: Kd (1/s), dissociation rate.
Chain of TSST-1 (P06886 41-234 limits assumed): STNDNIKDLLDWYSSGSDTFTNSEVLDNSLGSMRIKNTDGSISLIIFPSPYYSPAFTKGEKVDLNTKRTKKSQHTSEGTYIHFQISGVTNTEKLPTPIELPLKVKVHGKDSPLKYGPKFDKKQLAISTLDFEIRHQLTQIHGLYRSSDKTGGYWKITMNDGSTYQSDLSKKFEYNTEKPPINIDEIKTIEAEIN
For the next test, the system named is SMEZ. The test is classed as binding, Streptococcus pyogenes.

Chain of cell-surface CD28 (P01552 28-266 limits assumed): as the sequence (P01552 28-266 limits assumed) above

With HVKGKHLCP [p1TA, reference compound], in the test on cell-surface B7-2, the “inhibition of binding of SEB to cells expressing B7-2” value (from here on “inhibition of binding of SEB”) is reported as “equally inhibited”. The “blocking of binding of SEB to cell-surface CD28” value (“blocking of binding of SEB” for short) in the test with cell-surface CD28 [1] is given as “capable of blocking”; at cell-surface CD28 [2], “abrogated”.

On to [dA]MGRTSFDSDS[dA] [D-Ala-pB2-7], for which the “inhibition of binding of SEB” value in the test on cell-surface B7-2 is given as “likewise blocked”. The “blocking of binding of SEB” value in the test on cell-surface CD28 [1] is given as “capable of blocking”. Moreover, the “survival of SEB challenge (mice surviving/group)” value (“survival … (mice surviving/group)” for short) in test [3] (n=6) is “protected and 6/6”. In the test on PBMC induced with αCD3, the “induction of an IFN-γ response by the peptide alone” value is on record as “at neither concentration” and the “inhibition of induction of IFN-γ by αCD3” value was “did not inhibit”. Besides, the “attenuation of LPS-mediated induction of TNF-α” value in test [4] is given as “reduced”.

Regarding [dA]MLKIQAY[dA] [D-Ala-pB2-5], in the test on PBMC induced with SEB, the “inhibition of SEB-mediated induction of IFN-γ” value was “failed to inhibit”.

With SPMLVAYD [p2TA, reference compound], the “inhibition of binding of SEB” value in the test with cell-surface B7-2 is “equally inhibited”. The results for the “blocking of binding of SEB” value in the test with cell-surface CD28 [1] and on cell-surface CD28 [2] were “capable of blocking” and “abrogated”, respectively.

With MGRTSFDSDS [pB2-7], in the test on PBMC induced with SEB, the “inhibition of SEB-mediated induction of IFN-γ” value is listed as “inhibited”, the “inhibition of SEB-mediated induction of IL-2” value (“inhibition … of IL-2” below) is “inhibited”, the “inhibition of SEB-mediated induction of IL-10” value is listed as “did not inhibit” and the “inhibition of SEB-mediated induction of TNF-α” value (from here on “inhibition … of TNF-α”) is reported as “inhibited”. For the same compound, in test [5], the “attenuation of IFN-γ expression induced by αCD3/αCD28” value was “significant attenuation” and the “attenuation of TNF-α expression induced by αCD3/αCD28” value is given as “significant attenuation”.

Take `CSCC[C@H](NC(=O)[C@H](Cc1ccc(O)cc1)NC(=O)[C@H](CCCCN)NC(=O)[C@H](CO)NC(=O)[C@H](Cc1c[nH]cn1)NC(=O)[C@@H](NC(=O)[C@H](CO)NC(=O)[C@H](CC(=O)O)NC(=O)[C@H](Cc1ccccc1)NC(=O)[C@H](CCCCN)NC(=O)[C@@H](N)CCC(=O)O)C(C)C)C(=O)O` [pB2-4] (H-EKFDSVHSKYM-OH; N-terminus and C-terminus assumed): at SEB, the kon was 413 M⁻¹ s⁻¹ and the koff came to 0.000958 s⁻¹. Further, at TSST-1, the kon was 4080 M⁻¹ s⁻¹ and the koff is 0.0277 s⁻¹. In the test with SMEZ, the “Ka (1/Ms), association rate” value is 3,020 1/Ms and the “Kd (1/s), dissociation rate” value is 0.00293 s⁻¹. Moreover, in the test on PBMC induced with SEB, the “inhibition of SEB-mediated induction of IFN-γ” value is “only partially”, the “inhibition … of IL-2” value is on record as “only partially” and the “inhibition … of TNF-α” value is “only partially”.

Take [dA]EKFDSVHSKYM[dA] [D-Ala-pB2-4]: in the test on PBMC induced with SEB, the “effect on SEB-mediated induction of IL-10” value is recorded as “resistant”, the “inhibition of SEB-mediated induction of IFN-γ” value is “strongly inhibitory”, the “inhibition … of IL-2” value is “inhibited” and the “inhibition … of TNF-α” value was “inhibited”. Besides, the “inhibition of binding of SEB” value in the test with cell-surface B7-2 is reported as “effectively blocked”. Besides, the “blocking of binding of SEB” value with cell-surface CD28 [1] is listed as “capable of blocking”. Also, the “survival … (mice surviving/group)” value in [3] (n=5) is 4/5. In addition, in test [5], the “inhibition of CD28 signaling, IFN-γ induced by αCD3/αCD28” value is “inhibition” and the “inhibition of CD28 signaling, TNF-α induced by αCD3/αCD28” value is listed as “inhibition”. Moreover, in [4], the “attenuation of LPS-mediated induction of TNF-α” value was “sensitive to attenuation; also recorded: reduced”.

For [dA]HHKKPTGMIR[dA] [D-Ala-pB2-3], the “inhibition of SEB-mediated induction of IFN-γ” value in the test with PBMC induced with SEB was “failed to inhibit”.

On to `CC(C)C[C@H](NC(=O)[C@@H](NC(=O)[C@H](Cc1c[nH]c2ccccc12)NC(=O)[C@H](CO)NC(=O)[C@H](CC(=O)O)NC(=O)[C@H](CO)NC(=O)[C@@H](N)CC(=O)O)[C@@H](C)O)C(=O)N[C@@H](CCCNC(=N)N)C(=O)O` [pB2-6] (H-DSDSWTLR-OH; N-terminus and C-terminus assumed), for which, at SEB, the kon came out at 491 M⁻¹ s⁻¹ and the koff worked out at 0.0019 s⁻¹. At TSST-1, the kon turned out to be 2530 M⁻¹ s⁻¹ and the koff is 0.00304 s⁻¹. In addition, in the test with SMEZ, the “Ka (1/Ms), association rate” value is reported as 1,590 1/Ms; binding was characterised by a dissociation constant (Kd) of 1790 nM; the “Kd (1/s), dissociation rate” value worked out at 0.00286 s⁻¹. For the same compound, in the test on PBMC induced with SEB, the “inhibition of SEB-mediated induction of IFN-γ” value is “only partially”, the “inhibition … of IL-2” value was “only partially” and the “inhibition … of TNF-α” value is on record as “only partially”.

For the compound [dA]DSDSWTLR[dA] [D-Ala-pB2-6], in the test with PBMC induced with SEB, the “effect on SEB-mediated induction of IL-10” value is reported as “resistant”, the “inhibition of SEB-mediated induction of IFN-γ” value is given as “strongly inhibitory”, the “inhibition … of IL-2” value was “inhibited” and the “inhibition … of TNF-α” value is “inhibited”. Further, the “inhibition of binding of SEB” value in the test with cell-surface B7-2 was “effectively blocked”. The “blocking of binding of SEB” value in the test on cell-surface CD28 [1] is on record as “capable of blocking”. For the same compound, the “survival … (mice surviving/group)” value in test [3] (n=5) is reported as 5/5. The “attenuation of LPS-mediated induction of TNF-α” value in test [4] is “sensitive to attenuation; also recorded: reduced”.

Turning to [dA]DLPCQFANSQN[dA] [D-Ala-pB2-2], the “inhibition of SEB-mediated induction of IFN-γ” value in the test with PBMC induced with SEB is “failed to inhibit”. The “inhibition of binding of SEB” value in the test with cell-surface B7-2 was “did not inhibit binding”.
